Test results taken from US7691842B2, “Tricyclic 6-alkylidene-penems as β-lactamase inhibitors” (Wyeth LLC, priority 2002, dated 2010).

Experiments:
class C enzyme AmpC = class C enzyme AmpC (Enterobacter cloacae, UniProt P05364); assay: biochemical; set-up: species or system Enterobacter cloaca; conditions: enzyme 2.1 nM; 10 min preincubation at 25° C.; nitrocefin 50 μg/ml; 50 mM PO4, pH 7.0; read-out: IC50 (nM) Class C AmpC
Procedure: (§1) IC50 Determination for the Penem Inhibitor
(§2) β-Lactamase inhibitory activity of the penem inhibitors was determined spectrophotometrically as described by Bush et al., [Bush, K., Macalintal, C., Rasmussen, B. A., Lee, V. and Yang, Y. Antimicrobial Agents and Chemotherapy 1993, 37, 851]. Homogeneously purified class A β-lactamases TEM-1 from E. Coli and Imi-1 from Enterobacter cloacae, class B enzyme CcrA from Bacteroides fragilis and class C enzyme AmpC from Enterobacter cloaca were employed in the assay. The enzyme concentrations for TEM-1, Imi-1, CcrA and AmpC were 4.3, 7.1, 1.2 and 2.1 nM, respectively. A wide range of inhibitor concentrations were prepared in 50 mM PO4, pH 7.0 to include the possible IC50 values. The substrate used to initiate the enzyme reaction was nitrocefin at 50 μg/ml in the same buffer as the inhibitor. Initially the enzyme and inhibitor (20 μl each) were preincubated for 10 minutes at 25° C. prior to the addition of 160 μl volume of nitrocefin. Initial rates of hydrolysis were monitored for 5 minutes at 495 nm using a Molecular Devices Spectra Max 250 with kinetic protocol of SoftMax Program. Readings from the Spectra Max 250 were exported and transferred to Microsoft Excel. The percent of inhibition of each inhibitor concentration was calculated based on the control enzyme activity. The inhibitor concentration that caused a 50% reduction in the enzymatic activity (IC50) was determined graphically.

[1] = molecular target: class A β-lactamase TEM-1 (Escherichia coli, UniProt P62593); assay: β-Lactamase inhibition, IC50 determination (nitrocefin, spectrophotometric); assay type: biochemical, E. Coli; conditions: enzyme 4.3 nM; 10 min preincubation at 25° C.; nitrocefin 50 μg/ml; 50 mM PO4, pH 7.0; read-out: IC50 (nM) Class A TEM-1
Sequence of class A β-lactamase TEM-1 (P62593 24-286 limits assumed): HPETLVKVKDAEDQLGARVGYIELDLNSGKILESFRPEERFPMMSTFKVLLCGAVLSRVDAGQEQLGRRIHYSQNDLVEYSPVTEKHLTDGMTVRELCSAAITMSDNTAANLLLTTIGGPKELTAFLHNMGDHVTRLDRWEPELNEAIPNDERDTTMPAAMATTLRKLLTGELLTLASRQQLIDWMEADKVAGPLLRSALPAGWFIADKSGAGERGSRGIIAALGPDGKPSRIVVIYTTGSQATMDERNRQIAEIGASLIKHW
Procedure: as §1, §2

E. Coli GC2920 (IRT-2) = assay: Antimicrobial susceptibility testing, microbroth dilution MIC of piperacillin + inhibitor; assay type: cell-based; conditions: piperacillin combined with constant 4 μg/ml inhibitor; Inc: 35° C. for 18 hours
Procedure: (§3) Antimicrobial susceptibility testing. The in vitro activities of the antibiotics were determined by the microbroth dilution method as recommended by the National Committee for Clinical Laboratory Standards (NCCLS). (NCCLS. 2000. Methods for Dilution Antimicrobial Susceptibility Tests for Bacteria That Grow Aerobically; Approved Standards: M7-A5, vol. 19. National Committee for Clinical Laboratory Standards, Villanova, Pa.). Mueller-Hinton it broth (MHBII)(BBL Cockeysville, Md.), was used for the testing procedure. Microtiter plates containing 50 μl per well of two-fold serial dilutions of piperacillin combined with a constant amount (4 μg/ml) of a B-lactamase inhibitor (final concentration) were inoculated with 50 μl of inoculum to yield the appropriate density (10^5 CFU/ml) in 100 μl. The plates were incubated for 18-22 hours at 35° C. in ambient air.

E. Coli GC2894 (Ampc) = assay: as above; assay type: cell-based; conditions: piperacillin combined with constant 4 μg/ml inhibitor; Inc: 35° C. for 18 hours
Procedure: as §3

[2] = system: S. Marcescens GC1781 Sme-1 + Ampc; assay: as above; assay type: cell-based; conditions: piperacillin combined with constant 4 μg/ml inhibitor; Inc: 35° C. for 18 hours
Procedure: as §3

S. aureus GC2216 = assay: as above; assay type: cell-based; conditions: piperacillin combined with constant 4 μg/ml inhibitor; Inc: 35° C. for 18 hours
Procedure: as §3

E. Coli GC2203 = assay: as above; assay type: cell-based; conditions: piperacillin combined with constant 4 μg/ml inhibitor; Inc: 35° C. for 18 hours
Procedure: as §3

E. Cloacae GC1477 (Ampc) = assay: as above; assay type: cell-based; conditions: piperacillin combined with constant 4 μg/ml inhibitor; Inc: 35° C. for 18 hours
Procedure: as §3

E. Coli GC2844 = assay: as above; assay type: cell-based; conditions: piperacillin combined with constant 4 μg/ml inhibitor; Inc: 35° C. for 18 hours
Procedure: as §3

[3] = system: P. aeruginos GC1764 (Ampc); assay: as above; assay type: cell-based; conditions: piperacillin combined with constant 4 μg/ml inhibitor; Inc: 35° C. for 18 hours
Procedure: as §3

E. Coli GC2847 (TEM-1) = assay: as above; assay type: cell-based; conditions: piperacillin combined with constant 4 μg/ml inhibitor; Inc: 35° C. for 18 hours
Procedure: as §3

[4] = molecular target: class A β-lactamase Imi-1 (Enterobacter cloacae, UniProt Q46991); assay: β-Lactamase inhibition, IC50 determination (nitrocefin, spectrophotometric); assay type: biochemical; conditions: enzyme 7.1 nM; 10 min preincubation at 25° C.; nitrocefin 50 μg/ml; 50 mM PO4, pH 7.0; read-out: IC50 (nM) Class A Imi
Sequence of class A β-lactamase Imi-1 (Q46991 entry or part of it): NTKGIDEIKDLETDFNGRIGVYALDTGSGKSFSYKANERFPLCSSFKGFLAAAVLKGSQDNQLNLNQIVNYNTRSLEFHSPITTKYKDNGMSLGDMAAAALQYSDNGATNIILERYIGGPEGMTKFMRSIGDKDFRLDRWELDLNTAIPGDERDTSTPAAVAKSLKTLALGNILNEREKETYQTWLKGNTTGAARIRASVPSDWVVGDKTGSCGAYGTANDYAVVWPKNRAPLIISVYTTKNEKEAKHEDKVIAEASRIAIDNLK
Procedure: as §1, §2

class B enzyme CcrA = class B enzyme CcrA (Bacteroides fragilis, UniProt P25910); assay: as above; assay type: biochemical; conditions: enzyme 1.2 nM; 10 min preincubation at 25° C.; nitrocefin 50 μg/ml; 50 mM PO4, pH 7.0; read-out: IC50 (nM) Class B Ccr
Sequence of class B enzyme CcrA (P25910 19-249): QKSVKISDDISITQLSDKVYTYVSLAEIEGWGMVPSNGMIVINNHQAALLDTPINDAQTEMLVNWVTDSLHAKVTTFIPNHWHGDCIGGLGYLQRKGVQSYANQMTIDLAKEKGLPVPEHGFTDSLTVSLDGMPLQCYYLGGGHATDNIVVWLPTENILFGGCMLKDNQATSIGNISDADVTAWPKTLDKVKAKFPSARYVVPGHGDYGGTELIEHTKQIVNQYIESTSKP
Procedure: as §1, §2

Sequence of class C enzyme AmpC (P05364 21-381): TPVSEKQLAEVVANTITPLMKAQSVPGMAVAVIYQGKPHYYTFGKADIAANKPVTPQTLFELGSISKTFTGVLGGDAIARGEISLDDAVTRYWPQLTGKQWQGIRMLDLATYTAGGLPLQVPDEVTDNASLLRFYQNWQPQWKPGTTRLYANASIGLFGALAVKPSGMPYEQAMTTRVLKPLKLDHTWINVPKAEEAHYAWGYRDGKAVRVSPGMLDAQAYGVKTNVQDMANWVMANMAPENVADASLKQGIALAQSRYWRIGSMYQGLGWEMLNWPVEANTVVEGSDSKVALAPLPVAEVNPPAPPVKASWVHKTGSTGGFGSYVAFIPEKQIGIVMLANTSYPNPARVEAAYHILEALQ

SMILES	IC50 (class C enzyme AmpC)	IC50 [1]	Minimal Inhibitory Concentration E. Coli GC2920 (IRT-2) (E. Coli GC2920 (IRT-2))	Minimal Inhibitory Concentration E. Coli GC2894 (Ampc) (E. Coli GC2894 (Ampc))	Minimal Inhibitory Concentration S. Marcescens GC1781 Sme-1 + Ampc [2]	Minimal Inhibitory Concentration S. aureus GC2216 (S. aureus GC2216)	Minimal Inhibitory Concentration E. Coli GC2203 (E. Coli GC2203)	Minimal Inhibitory Concentration E. Cloacae GC1477 (Ampc) (E. Cloacae GC1477 (Ampc))	Minimal Inhibitory Concentration E. Coli GC2844 (E. Coli GC2844)	Minimal Inhibitory Concentration P. aeruginos GC1764 (Ampc) [3]	Minimal Inhibitory Concentration E. Coli GC2847 (TEM-1) (E. Coli GC2847 (TEM-1))	IC50 [4]	IC50 (class B enzyme CcrA)
O=C([O-])C1=CS[C@@H]2C(=Cc3cc4n(n3)Cc3ccccc3OC4)C(=O)N12.[Na+] [Example 11, (5R,6E&Z)-7-oxo-6-(4H,10H-pyrazolo[5,1-c][1,4]-benzoxazepin-2-ylmethylene)-4-thia-1-azabicyclo[3.2.0]hept-2-ene-2-carboxylic acid, sodium salt]	3.6 nM	1.4 nM	1 µg/mL	4 µg/mL	1 µg/mL	<0.06 µg/mL	1 µg/mL	32 µg/mL	1 µg/mL	16 µg/mL	8 µg/mL	78 nM	62 nM
O=C(O)C1=CS[C@@H]2/C(=C\c3ccc4c(c3)sc3nccn34)C(=O)N12 [Example 16, (5R),(6Z)-6-(imidazo[2,1-b]bebzothiazol-7-ylmethylene)-7-oxo-4-thia-1-azabicyclo[3.2.0]hept-2-ene-2-carboxylic acid]	9.5 nM	4.5 nM	2 µg/mL	32 µg/mL	1 µg/mL	0.05 µg/mL	4 µg/mL	>64 µg/mL	2 µg/mL	32 µg/mL	64 µg/mL	70 nM	130 nM
O=C([O-])C1=CS[C@@H]2/C(=C\c3cc4oc5c(n4n3)CCCC5)C(=O)N12.[Na+] [Example 32, (5R,6Z)-7-oxo-6-(5,6,7,8-tetrahydropyrazolo[5,1-b][1,3]benzoxazol-2-ylmethylene)-4-thia-1-1-azabicyclo[3.2.0]hept-2-ene-2-carboxylic acid, sodium salt]	5.6 nM	2.6 nM	4 µg/mL	32 µg/mL	2 µg/mL	.05 µg/mL	2 µg/mL	64 µg/mL	2 µg/mL	64 µg/mL	16 µg/mL	110 nM	180 nM
